According to patent US10232021B2, “Calcitonin mimetics for treating diseases and disorders” (KEYBIOSCIENCE AG, priority 2013, dated 2019):
Bridges are numbered along the chain shown (N, C = ends).

Legend:
[1] = target: T1, Calcitonin Receptor (CTR) (Homo sapiens, UniProt P30988); assay: Competitive ligand binding against 125I-sCT on CTR cells; details: U20S-CALCR cells; 0.1 nM 125I-sCT; 60 min, 37° C.
T1 construct: host or cells: U2OS
T1 sequence (P30988 25-474): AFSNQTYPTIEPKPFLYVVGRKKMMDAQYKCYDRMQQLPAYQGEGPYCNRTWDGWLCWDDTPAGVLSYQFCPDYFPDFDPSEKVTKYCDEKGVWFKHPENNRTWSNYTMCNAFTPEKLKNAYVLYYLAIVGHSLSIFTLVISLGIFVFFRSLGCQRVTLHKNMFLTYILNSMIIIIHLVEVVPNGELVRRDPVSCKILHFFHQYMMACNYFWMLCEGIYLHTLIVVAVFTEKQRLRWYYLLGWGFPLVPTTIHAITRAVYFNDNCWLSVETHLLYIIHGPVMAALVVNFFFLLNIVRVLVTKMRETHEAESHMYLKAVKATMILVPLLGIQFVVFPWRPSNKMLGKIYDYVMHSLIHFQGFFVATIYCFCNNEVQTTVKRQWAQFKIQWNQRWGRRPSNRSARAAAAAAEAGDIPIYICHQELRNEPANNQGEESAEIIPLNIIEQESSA
Excerpt: (§1) The following cell lines expressing the calcitonin, amylin and CGRP receptors were purchased and cultured according to the manufacturer's instructions. • 1. Calcitonin Receptor (CTR): U20S-CALCR from DiscoveRx (Cat. No.: 93-0566C3). • 2. Amylin Receptor (AMY-R): CHO-K1 CALCR+RAMP3 from DiscoveRx (Cat. No.: 93-0268C2). • 3. CGRP Receptor (CGRP-R): CHO-K1 CALCRL+RAMP1 from DiscoveRx (Cat. No.: 93-0269C2).
(§2) Corresponding to the beta-arrestin induction experiments, we performed competitive ligand binding experiments using the cells expressing the CTR and the AMY-R. In studying ligand binding on cells, 15.000 CTR or AMY-R cells were seeded in 96-well plate and cells were treated with 0.1 nM ^125I-conjugated sCT with or without the presence of unlabelled KBP in increasing doses for 60 min at 37° C. After incubation the supernatant was removed and cells were washed twice in 200 μl PBS. The cells were lysed using RIPA‡ buffer (30 mM M NaCl, 50 mM Tris-HCl, 5 mM EDTA, 1% Deoxycholic acid, […], Protease inhibitor tablet mini (1 tablet:10 ml)) and lysates as well were collected for measurement on a γ-counter.

[2] = Three-week treatment of ZDF rats: fasting plasma glucose and HbA1c; format: in vivo, male ZDF (fa/fa) rats; details: 5 μg/kg/day subcutaneously once daily, 3 weeks
Experimental: To assess the effects of the peptides in relation to regulation of blood glucose levels, male ZDF rats, which are the gold standard model of Type 2 Diabetes were treated for 3 weeks with the 3 most promising KBPs (023, 056 and 088) and an active comparator (UGP302/KBP-042). Male ZDF (fa/fa) rats were obtained at the age of 7 weeks from Charles River Laboratories (Kisslegg, Deutschland). All animals were housed at the animal facility at Nordic Bioscience with a constant temperature (21-23° C.) and relative humidity (55-65%) on a 12 h light/dark cycle with free access to Purina 5008 rat chow (Brogaarden, Lynge, Denmark) and tap water. At the age of 8 weeks, the animals were randomized into five groups of 8 rats each based upon fasting blood glucose and body weight (Vehicle (saline), UGP302/KBP-042 5 μg/kg/day, KBP-023 5 μg/kg/day, KBP-056 5 μg/kg/day and KBP-088 5 μg/kg/day) and dosing was done subcutaneously once daily. The animals were treated for a total of 3 weeks to assess the effect of the peptides on fasting blood glucose. Blood glucose was monitored using the Accu-Check® Avia monitoring system (Roche Diagnostics, Rotkreuz, Switzerland) and HbA1c levels by the DCA Vantage™ Analyzer (Siemens Healthcare Diagnostics, Deerfield, Ill.).

[3] = Single-dose food intake in obese High-Fat-Diet rats; format: in vivo; details: single subcutaneous dose 1.25, 2.5, 5 μg/kg; obese rats fasted overnight
Experimental: Rats were fed a High-Fat-Diet for 14 weeks prior to the experiment to induce obesity.
Further similar studies were undertaken over different time periods and with different peptides and the results are seen in FIG. 10 and FIGS. 11A-11B. The ability of KBP089 to suppress food intake over 72 hours was compared to that of KBP042 as control and the results are seen in FIG. 10.

[4] = target: T2, Amylin Receptor (AMY-R) (Homo sapiens, UniProt P30988); assay: Competitive ligand binding against 125I-sCT on AMY-R cells; details: CHO-K1 CALCR+RAMP3 cells; 0.1 nM 125I-sCT; 60 min, 37° C.
T2 construct: host or cells: CHO-K1
T2 sequence (P30988 25-474): T1 sequence (P30988 25-474)
T2 sequence (O60896 24-148 partner): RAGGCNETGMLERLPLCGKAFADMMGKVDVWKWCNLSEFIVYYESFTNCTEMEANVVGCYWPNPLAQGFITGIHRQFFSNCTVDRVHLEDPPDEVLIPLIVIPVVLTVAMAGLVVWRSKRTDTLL
Excerpt: as §1, §2

[5] = target: T2, Amylin Receptor (AMY-R); assay: PathHunter β-arrestin assay on the amylin receptor; format: cell-based; details: CHO-K1 CALCR+RAMP3 cells
Experimental: as §1
In independent bioassays, CTR, AMY-R and CGRP-R cells were treated with for the indicated timepoints with increasing doses of sCT, UGP-302/KBP-042 or the KBPs identified in Table 3 (0, 0.001, 0.01, 0.1, 1, 10, and 100 nM). […]
In this system, the GPCR is fused in frame with the small enzyme fragment ProLink™ and co-expressed in cells stably expressing a fusion protein of β-Arrestin and the larger, N-terminal deletion mutant of β-gal (called enzyme acceptor or EA). […] This interaction leads to an increase in enzyme activity that can be measured using chemiluminescent PathHunter® Detection Reagents.
The assay was performed in white 384 well plates (Greiner Bio-One, 784080). […] To quantify the GPCR-mediated β-arrestin recruitment the Pathhunter™ Detection Kit (93-0001, DiscoverX) was used and assay performed accordingly to the manufacturer's instructions.

- competitive binding affinity on the CTR [1]: better than the other ligands
Substance: KBP-088: SEQ ID NO: 12; AcCSNLSTCMLGRLSQELHRLQTFPKTDVGANAP-NH2, Cys1-Cys7 disulphide bridge (Ac-CSNLSTCMLGRLSQELHRLQTFPKTDVGANAP-NH2; disulfide 1-7; SMILES CSCC[C@H](NC(=O)[C@@H]1CSSC[C@H](NC(C)=O)C(=O)N[C@@H](CO)C(=O)N[C@@H](CC(N)=O)C(=O)N[C@@H](CC(C)C)C(=O)N[C@@H](CO)C(=O)N[C@@H]([C@@H](C)O)C(=O)N1)C(=O)N[C@@H](CC(C)C)C(=O)NCC(=O)N[C@@H](CCCNC(=N)N)C(=O)N[C@@H](CC(C)C)C(=O)N[C@@H](CO)C(=O)N[C@@H](CCC(N)=O)C(=O)N[C@@H](CCC(=O)O)C(=O)N[C@@H](CC(C)C)C(=O)N[C@@H](Cc1c[nH]cn1)C(=O)N[C@@H](CCCNC(=N)N)C(=O)N[C@@H](CC(C)C)C(=O)N[C@@H](CCC(N)=O)C(=O)N[C@H](C(=O)N[C@@H](Cc1ccccc1)C(=O)N1CCC[C@H]1C(=O)N[C@@H](CCCCN)C(=O)N[C@H](C(=O)N[C@@H](CC(=O)O)C(=O)N[C@H](C(=O)NCC(=O)N[C@@H](C)C(=O)N[C@@H](CC(N)=O)C(=O)N[C@@H](C)C(=O)N1CCC[C@H]1C(N)=O)C(C)C)[C@@H](C)O)[C@@H](C)O)
- HbA1c [2]: highly active
- fasting plasma glucose (FPG) [2]: highly active
- food intake, 0-4 hours [3]: led to a reduction in food intake
- food intake, 4-24 hours [3]: the effect was maintained to 24 hours
- food intake, 24-48 hours [3]: only KBP-089 led to a reduction in food intake
- competitive binding affinity on the AMY-R [4]: better than the other ligands, particularly on the AMY-R
- activation of the AMY-R (β-arrestin dose-response) [5]: more potent that the classical AMY-R agonist sCT
